Data from paper PMC5117899 (Cell chemical biology, 2016).

Molecular target: T1, AcnA (Staphylococcus aureus, UniProt Q2FYS9)
T1 sequence (Q2FYS9 1-901): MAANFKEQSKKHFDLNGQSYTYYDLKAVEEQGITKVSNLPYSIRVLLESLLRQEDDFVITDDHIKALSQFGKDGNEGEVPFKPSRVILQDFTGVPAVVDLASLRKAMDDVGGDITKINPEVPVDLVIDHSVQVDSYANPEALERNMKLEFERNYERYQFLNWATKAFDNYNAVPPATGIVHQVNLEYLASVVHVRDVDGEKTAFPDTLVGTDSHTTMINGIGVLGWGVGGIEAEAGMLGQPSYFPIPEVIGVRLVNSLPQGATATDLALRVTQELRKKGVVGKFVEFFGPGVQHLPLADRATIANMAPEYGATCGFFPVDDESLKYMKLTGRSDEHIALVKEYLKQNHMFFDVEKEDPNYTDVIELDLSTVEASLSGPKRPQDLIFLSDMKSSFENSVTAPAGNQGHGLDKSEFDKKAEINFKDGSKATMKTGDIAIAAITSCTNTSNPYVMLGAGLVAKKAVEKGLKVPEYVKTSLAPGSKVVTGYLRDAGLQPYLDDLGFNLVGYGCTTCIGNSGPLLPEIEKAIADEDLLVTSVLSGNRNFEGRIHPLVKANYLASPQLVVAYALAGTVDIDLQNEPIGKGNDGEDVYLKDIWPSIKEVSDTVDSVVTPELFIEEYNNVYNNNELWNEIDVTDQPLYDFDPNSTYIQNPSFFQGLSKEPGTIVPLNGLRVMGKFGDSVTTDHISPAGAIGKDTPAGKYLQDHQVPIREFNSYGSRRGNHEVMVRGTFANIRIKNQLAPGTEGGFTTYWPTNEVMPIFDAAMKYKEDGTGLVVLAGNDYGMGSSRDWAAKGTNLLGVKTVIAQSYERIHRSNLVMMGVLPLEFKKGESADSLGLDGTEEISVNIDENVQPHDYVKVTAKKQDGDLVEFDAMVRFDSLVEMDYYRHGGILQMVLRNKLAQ
Experiment: spectrophotometric, cis-aconitate formation at […] nm
Type: biochemical
Settings: Fe-S cluster reconstituted in vitro

## O=C(O)C[C@H](C(=O)O)[C@@H](O)C(=O)O [isocitrate]
  spectrophotometric, cis-aconitate formation at 240 nm: purified AcnA was determined by monitoring the conversion of isocitrate to cis-aconitate spectrophotometrically
